# Test results: PMC3793924, “Targeting Androgen Receptor/Src Complex Impairs the Aggressive Phenotype of Human Fibrosarcoma Cells” (PLoS ONE, 2013)
# What was measured:
# [1] = Body weight of xenografted mice; assay type: in vivo; conditions: Casodex i.p. on alternate days, 4 weeks; weighed twice weekly
# Text: HT1080 cells in 50% (v/v) Matrigel solution in phosphate-buffered saline (PBS; pH 7.4) were subcutaneously injected in the dorsal posterior region at 2.5 x 10^6 cells/male athymic mice (CD mice, Charles-River Italia) without hormone priming. Animals were randomly selected for the treatment with Casodex (dissolved in 0.1% ethanol) or DHT (dissolved in 0.1% ethanol) or control vehicle intra-peritoneally for a total of 4 weeks. Each group consisted of six animals. For the treatment of each animal (average weight: 25.08 g), 200 μl of 1 μM Casodex (about 0.1 µg) in 0.1% ethanol or 200 μl of 1 μM DHT (about 3 μg/Kg body weight) or the same amount of vehicle alone were administered to the mice on alternate days. The tumor volumes of HT1080 cell xenografts were measured at indicated intervals in two dimensions by a caliper and expressed as tumor mass (mm^3). This is calculated according to the formula: a^2 × b × 0.5, where a is the width and b is the length of the tumor. Food and water were given ad libitum. […] Animal experimentation was reviewed and approved by the Animal Research Ethical Committee of “Istituto per la Diagnosi e la Cura dei Tumori- Fondazione “G. Pascale” (Naples-ITALY).
# HT1080 cell xenografts = HT1080 cell xenografts in nude male mice, tumor mass; assay type: in vivo; conditions: i.p. on alternate days for 4 weeks, Casodex 0.1 μg/mice (4 µg/Kg), DHT 0,1 μg/mice (3 μg/Kg), six animals per group
# Description: Figure 1 Casodex inhibits the EGF-triggered DNA synthesis in human fibrosarcoma HT1080 cells and reduces the growth of HT1080 xenografts. Human fibrosarcoma HT1080 cells were used. In A, quiescent cells on coverslips were left un-stimulated or stimulated for 18 h with the indicated compounds. […] After in vivo pulse with BrdU (100 μM; Sigma), BrdU incorporation was analyzed by IF and expressed as % of total nuclei. Several independent experiments were performed in duplicate and the results were derived from at least 400 scored cells for each coverslip. Mean and SEM are shown. n represents the number of experiments. (**) p value< 0,001. […] In B, xenografts were established in nude male mice as described in Methods. […] Volumes of HT1080 cell xenografts were measured at the indicated times in two dimensions by a caliper and expressed as tumor mass (mm^3). […]
# HT1080 cells in 50% (v/v) Matrigel solution in phosphate-buffered saline (PBS; pH 7.4) were subcutaneously injected in the dorsal posterior region at 2.5 x 10^6 cells/male athymic mice (CD mice, Charles-River Italia) without hormone priming. […] The tumor volumes of HT1080 cell xenografts were measured at indicated intervals in two dimensions by a caliper and expressed as tumor mass (mm^3). This is calculated according to the formula: a^2 × b × 0.5, where a is the width and b is the length of the tumor. […]
# KP-2 cells = experiment: BrdU incorporation in KP-2 cells; assay type: cell-based, human; conditions: quiescent KP-2 cells, EGF 100 ng/ml, 18 h; for Inhibition of EGF-induced BrdU incorporation: Casodex 10 μM, S1 and Ss peptides 10 nM
# Description: Quiescent human colon cancer-derived HCT116 cells were used. In A, cells on coverslips were left un-stimulated or stimulated for 18 h with the indicated compounds. […] After in vivo pulse with BrdU (100 μM), BrdU incorporation was analyzed by IF and expressed as % of total cells. Several independent experiments were performed in duplicate and the results were derived from at least 400 scored cells for each coverslip. Mean and SEM are shown. n represents the number of experiments. In B, the cells were left untreated or treated for 6 h with the indicated compounds. […] Cells were allowed to migrate in collagen-pre-coated Trans-well filters. Migrated cells were stained and counted as reported in Methods. Results were derived from several independent experiments, each performed in duplicate. Data are expressed as relative increase. Mean and SEM are shown. n represents the number of experiments. Quiescent human pancreatic cancer-derived KP-2 cells were used. In C, cells on coverslips were left unstimulated or stimulated for 18 h with the indicated compounds. […] After in vivo pulse with BrdU (100 μM), BrdU incorporation was analyzed by IF and expressed as % of total cells. Several independent experiments were performed in duplicate and the results were derived from at least 400 scored cells for each coverslip. Mean and SEM are shown. n represents the number of experiments. In D, the cells were left untreated or treated for 6 h with the indicated compounds. […] Cells were allowed to migrate in collagen-pre-coated Trans-well filters. Migrated cells were stained and counted as reported in Methods. Results were derived from several independent experiments, each performed in duplicate. Data are expressed as relative increase. Mean and SEM are shown. n represents the number of experiments. […] After in vivo labeling with 100 μM BrdU (Sigma), DNA synthesis was analyzed by immunofluorescence, using diluted (1:50 in PBS) mouse monoclonal anti-BrdU antibody (clone BU-1, from GE Healthcare).
# AR/Src complex = tested on: AR/Src complex; design: method as in PMID 17486077; conditions: androgen-challenged prostate cancer LNCaP cells; cited from earlier work
# Text: (§1) Such a crosstalk has been previously analyzed in prostate cancer-derived LNCaP cells. […] The S1 peptide derives from the 377-386 amino-acid sequence of AR that is rich in prolines and is responsible for association of AR with t ...
# HT1080 cells = conditions: various cell types, including HT1080 cells (Figure S1); cited from earlier work
# Text: as §1
compound,measurement,setting,value
CC(O)(CS(=O)(=O)c1ccc(F)cc1)C(=O)Nc1ccc(C#N)c(C(F)(F)F)c1 (centres unmarked) [Casodex],Body weight versus control mice,[1],no difference in body weight
same,Growth of HT1080 xenografts (tumor mass),HT1080 cell xenografts,tumor growth was drastically reduced
same,Inhibition of EGF-induced BrdU incorporation,KP-2 cells,inhibit both DNA synthesis and motility
"EGF: epidermal growth factor (Roche), used as stimulus at 100 ng/ml",BrdU incorporation upon stimulation,KP-2 cells,significantly increases BrdU incorporation
Ac-PPPHPHARIK-NH2 [S1 peptide],Competition for AR association with the Src-SH3 domain,AR/Src complex,competes for this association
same,Diffusion across membranes,HT1080 cells,rapidly diffuses across membranes
same,Inhibition of EGF-induced BrdU incorporation,KP-2 cells,inhibit both DNA synthesis and motility
Ac-HPKPARIPHP-NH2 [Ss peptide],Inhibition of EGF-induced BrdU incorporation,KP-2 cells,does not interfere with the EGF-elicited responses
